Measured values taken from ChEMBL document CHEMBL1201862, “PubChem BioAssay data set” (2004).
Active and inactive are the calls of the source.

Tests used:
cells [1] = assay type: functional, cell-based
cells [2] = assay type: functional, cell-based; remark: listed apart in the source
[3] = target: T1, Replicative DNA helicase DnaB (Mycobacterium tuberculosis, UniProt P9WMR3); experiment: DnaB intein splicing inhibitors, dose response, biochemical, cell-free fluorescence (AID 449749); assay type: functional
T1 sequence (P9WMR3 whole entry): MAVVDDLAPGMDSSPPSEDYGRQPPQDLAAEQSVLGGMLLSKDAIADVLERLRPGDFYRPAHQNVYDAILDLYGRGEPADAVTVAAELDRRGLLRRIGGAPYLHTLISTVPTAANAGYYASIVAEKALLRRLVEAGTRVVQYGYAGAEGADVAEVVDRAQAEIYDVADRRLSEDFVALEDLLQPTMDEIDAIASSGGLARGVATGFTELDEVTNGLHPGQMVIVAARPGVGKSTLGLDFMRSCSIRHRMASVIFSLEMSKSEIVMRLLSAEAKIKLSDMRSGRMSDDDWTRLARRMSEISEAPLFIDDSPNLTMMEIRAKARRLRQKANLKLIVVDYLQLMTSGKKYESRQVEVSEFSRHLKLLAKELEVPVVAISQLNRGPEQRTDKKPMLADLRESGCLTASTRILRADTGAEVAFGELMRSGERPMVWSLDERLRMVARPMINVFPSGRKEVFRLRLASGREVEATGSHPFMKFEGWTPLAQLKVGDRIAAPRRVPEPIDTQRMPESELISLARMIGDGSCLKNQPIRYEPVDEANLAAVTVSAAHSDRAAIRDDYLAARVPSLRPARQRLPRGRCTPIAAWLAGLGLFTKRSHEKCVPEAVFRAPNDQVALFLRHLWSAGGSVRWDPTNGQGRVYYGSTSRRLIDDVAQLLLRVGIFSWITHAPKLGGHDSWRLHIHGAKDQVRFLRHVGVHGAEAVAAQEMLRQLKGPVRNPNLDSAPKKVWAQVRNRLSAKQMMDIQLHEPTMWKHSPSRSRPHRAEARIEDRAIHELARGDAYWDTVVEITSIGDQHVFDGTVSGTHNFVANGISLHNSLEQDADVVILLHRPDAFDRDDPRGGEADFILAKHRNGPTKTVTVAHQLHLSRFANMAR

Protein RecA = target: T2, Protein RecA (Mycobacterium tuberculosis, UniProt P9WHJ3); experiment: Fluorescence Cell-Free Homogeneous Dose Retest to Identify Inhibitors of RecA-Intein Splicing Activity. [Related pubchem assays (depositor defined):AID2097, AID2223, AID489010, AID492950]; assay type: functional
T2 sequence (P9WHJ3 whole entry): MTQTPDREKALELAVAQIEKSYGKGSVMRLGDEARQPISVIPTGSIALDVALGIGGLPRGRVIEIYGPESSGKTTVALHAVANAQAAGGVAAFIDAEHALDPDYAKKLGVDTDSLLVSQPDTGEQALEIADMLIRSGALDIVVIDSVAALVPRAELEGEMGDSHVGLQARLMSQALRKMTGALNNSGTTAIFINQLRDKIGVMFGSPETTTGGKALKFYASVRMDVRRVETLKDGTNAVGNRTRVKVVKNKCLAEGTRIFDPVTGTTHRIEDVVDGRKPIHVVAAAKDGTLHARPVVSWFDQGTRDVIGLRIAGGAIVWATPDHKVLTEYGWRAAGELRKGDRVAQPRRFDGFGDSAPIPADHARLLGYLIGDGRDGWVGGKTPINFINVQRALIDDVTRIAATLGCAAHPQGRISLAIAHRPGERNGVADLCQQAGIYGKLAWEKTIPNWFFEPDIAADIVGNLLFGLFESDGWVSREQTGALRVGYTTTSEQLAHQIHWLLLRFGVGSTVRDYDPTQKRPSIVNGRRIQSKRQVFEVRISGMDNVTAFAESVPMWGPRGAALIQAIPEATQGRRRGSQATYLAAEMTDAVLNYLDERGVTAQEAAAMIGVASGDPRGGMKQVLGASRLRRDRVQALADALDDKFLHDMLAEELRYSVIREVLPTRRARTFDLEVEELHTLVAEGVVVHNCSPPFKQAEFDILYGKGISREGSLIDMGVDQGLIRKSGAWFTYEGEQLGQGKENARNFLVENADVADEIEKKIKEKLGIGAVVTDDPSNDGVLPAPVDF

Protein skinhead-1 = target: T3, Protein skinhead-1 (Caenorhabditis elegans, UniProt P34707); assay type: functional
T3 sequence (P34707 whole entry): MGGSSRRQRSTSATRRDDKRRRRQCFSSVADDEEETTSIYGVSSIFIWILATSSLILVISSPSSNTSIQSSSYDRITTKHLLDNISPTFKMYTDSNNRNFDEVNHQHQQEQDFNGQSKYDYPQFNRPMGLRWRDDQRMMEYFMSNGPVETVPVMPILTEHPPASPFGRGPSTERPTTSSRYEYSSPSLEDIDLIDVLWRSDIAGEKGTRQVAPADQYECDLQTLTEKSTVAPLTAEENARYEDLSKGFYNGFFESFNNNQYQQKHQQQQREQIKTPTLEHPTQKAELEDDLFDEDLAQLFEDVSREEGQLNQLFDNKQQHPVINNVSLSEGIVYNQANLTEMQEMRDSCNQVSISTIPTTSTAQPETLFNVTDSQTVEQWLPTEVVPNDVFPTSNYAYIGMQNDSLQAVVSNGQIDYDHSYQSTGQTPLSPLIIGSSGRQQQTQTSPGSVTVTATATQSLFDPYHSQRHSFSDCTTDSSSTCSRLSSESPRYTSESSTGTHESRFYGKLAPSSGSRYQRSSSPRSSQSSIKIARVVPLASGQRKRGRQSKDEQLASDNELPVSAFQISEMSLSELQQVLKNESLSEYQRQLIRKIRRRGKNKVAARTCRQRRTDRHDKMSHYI

[4] = target: T4, Heat shock factor protein 1 (Mus musculus, UniProt P38532); experiment: decrease of HSF1-responsive luciferase luminescence – cell-based, NIH3T3, dose retest, confirmation (AID 2382); assay type: functional;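 also: NIH3T3 fibroblasts with HSF1-driven luciferase reporter stressed by proteasome inhibitor MG132; luminescence from HSF1-driven luciferase expression after 8 hours of MG132 stress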
T4 sequence (P38532 whole entry): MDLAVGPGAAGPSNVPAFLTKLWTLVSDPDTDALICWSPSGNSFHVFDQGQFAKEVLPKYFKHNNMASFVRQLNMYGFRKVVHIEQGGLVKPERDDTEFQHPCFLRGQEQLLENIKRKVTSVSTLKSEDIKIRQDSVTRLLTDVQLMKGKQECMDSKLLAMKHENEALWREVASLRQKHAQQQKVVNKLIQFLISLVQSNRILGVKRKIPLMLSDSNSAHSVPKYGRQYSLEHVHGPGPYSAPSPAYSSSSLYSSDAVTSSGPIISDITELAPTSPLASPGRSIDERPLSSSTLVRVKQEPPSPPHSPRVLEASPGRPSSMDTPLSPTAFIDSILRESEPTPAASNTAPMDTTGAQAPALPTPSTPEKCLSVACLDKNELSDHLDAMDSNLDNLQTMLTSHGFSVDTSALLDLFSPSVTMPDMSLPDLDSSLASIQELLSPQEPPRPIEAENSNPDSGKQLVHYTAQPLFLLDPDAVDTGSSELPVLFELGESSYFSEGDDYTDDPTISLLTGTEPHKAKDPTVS

[5] = Luminescence Cell-Based Dose Confirmation HTS to Identify Activators of 5'UTR Stem-Loop Driven Alpha-Synuclein mRNA Translation in H4 Neuroglioblastoma Cells. [Related pubchem assays: 1829 (Project Summary), 1814 (Primary HTS)]; assay type: functional
[6] = Luminescence Cell-Based Dose Response HTS to Identify Activators of Luciferase Translation or Activity in H4 […] Cells. [Related pubchem assays: 1829 (Project Summary), 1814 (Primary HTS)]; assay type: functional
H4 = experiment: Luminescence Cell-Based Dose Response HTS to Identify Activators of 5'UTR Stem-Loop Driven Prion Protein mRNA Translation in H4 Neuroglioblastoma Cells. [Related pubchem assays: 1829 (Project Summary), 1814 (Primary HTS)]; assay type: functional; settings: Homo sapiens
[7] = off-target signal loss in HeLa-CEM21 co-culture – HeLa F-luc CTL cells, cherry-picked, counter-screen for HIV-1 Env fusion inhibitor project, dose response (AID 652040); assay type: functional, cell-based;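 also: potency for signal decrease marking cytotoxic or nonspecific inhibition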
[8] = target: T5, Rac GTPase-activating protein 1 (Homo sapiens, UniProt Q9H0H5); experiment: blockers of MgcRacGAP-driven Rac1 GTP hydrolysis – biochemical, ADP Hunter fluorescence, primary and confirmatory, confirmation (AID 624330); assay type: functional
T5 sequence (Q9H0H5 whole entry): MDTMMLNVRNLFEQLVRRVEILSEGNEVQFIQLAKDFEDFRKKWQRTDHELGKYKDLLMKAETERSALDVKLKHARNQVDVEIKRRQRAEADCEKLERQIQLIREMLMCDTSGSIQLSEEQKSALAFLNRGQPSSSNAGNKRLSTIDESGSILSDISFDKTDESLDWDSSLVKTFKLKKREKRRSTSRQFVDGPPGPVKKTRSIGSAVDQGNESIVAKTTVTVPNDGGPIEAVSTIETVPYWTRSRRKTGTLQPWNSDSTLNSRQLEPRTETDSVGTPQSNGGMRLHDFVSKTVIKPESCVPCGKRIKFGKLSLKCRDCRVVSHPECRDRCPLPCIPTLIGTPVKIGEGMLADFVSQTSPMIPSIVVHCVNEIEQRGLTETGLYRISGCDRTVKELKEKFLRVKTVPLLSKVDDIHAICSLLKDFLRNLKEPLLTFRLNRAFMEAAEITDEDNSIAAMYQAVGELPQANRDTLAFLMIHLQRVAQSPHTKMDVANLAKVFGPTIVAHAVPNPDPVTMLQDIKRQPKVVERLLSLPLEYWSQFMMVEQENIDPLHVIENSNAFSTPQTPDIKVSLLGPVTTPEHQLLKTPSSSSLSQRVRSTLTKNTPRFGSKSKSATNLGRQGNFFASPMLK

[9] = blockers of HIV-1 envelope-mediated cell-cell fusion – cherry-pick, dose response (AID 652057); assay type: functional, cell-based
[10] = blockers of HIV-1 ZM109 envelope-driven cell-cell fusion – HeLa effector, CEM target cells, luciferase, cherry-pick, dose response (AID 652058); assay type: functional, cell-based;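 also: luciferase signal from HIV-1 Env mediated cell-cell fusion of effector and target cells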
[11] = HIV-1 AD8 envelope cell-cell fusion blockers – cherry-pick, dose response (AID 652062); assay type: functional, cell-based;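 also: luciferase signal from cell-cell fusion driven by HIV-1 clade B AD8 Env; potency is for inhibitors of fusion seen as a drop in luminescence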

Compound: COc1ccc(C)cc1NC(=O)c1ccc(N(C)S(C)(=O)=O)cc1
- EC50 (cells [1]): > 350 µM (not active)
- EC50 (cells [2]): > 350 µM (not active)

Compound: CCOc1ccccc1NC(=O)COc1ccc2c(c1)OCO2
- EC50 (cells [1]): > 350 µM (not active)
- EC50 (cells [2]): > 350 µM (not active)

Compound: CCCCCCn1c(N2CCC(C(N)=O)CC2)nc2c1c(=O)n(C)c(=O)n2C
- AC50 [3]: > 380 µM (inactive)
- EC50 (Protein RecA): > 380 µM (inactive)
- IC50 (Protein skinhead-1): > 100 µM (inactive)

Compound: C1CC1Cc1noc(CN2CCN(CC3CC3)CC2)n1
- EC50 (cells [1]): > 350 µM (not active)
- EC50 (cells [2]): > 350 µM (not active)

Compound: Cc1ccc2nc(-c3ccccc3NC(=O)CCC(=O)O)c(O)nc2c1
- EC50 (cells [1]): > 350 µM (not active)
- EC50 [4]: > 195 µM (not active)
- EC50 (cells [2]): > 350 µM (not active)

Compound: Cc1ccc(C(=O)Cn2nnc3ccccc32)cc1
- EC50 [5]: 0.276 µM (active)
- EC50 [6]: 0.325 µM (active)
- EC50 (H4): 77.2 µM (active)

Compound: O=C(NCC1CCCO1)c1sc2cc(Cl)ccc2c1Cl (stereo not given)
- EC50 (cells [1]): > 350 µM (not active)
- EC50 (cells [2]): 66.4 µM (active)

Compound: COCCNC(=O)C(c1ccncc1)N(Cc1ccccc1)C(=O)Cn1nnc2ccccc21 (stereo not given)
- EC50 [5]: 4.27 µM (active)
- EC50 [6]: 15.7 µM (active)
- EC50 (H4): 1.08 µM (active)

Compound: Cc1onc(-c2ccccc2)c1C(=O)OCCOc1cccc(Cl)c1
- AC50 [7]: > 70 µM (inactive)

Compound: Cc1cccc(NC(=O)Cc2noc3ccccc23)c1
- EC50 (cells [1]): > 350 µM (not active)
- EC50 (cells [2]): 115 µM (active)

Compound: O=c1c2ccccc2nnn1COc1ccc(Cl)cc1Br
- EC50 [5]: 0.383 µM (active)
- EC50 [6]: 29.7 µM (active)
- EC50 (H4): 15.6 µM (active)

Compound: N#Cc1ccccc1OCCCN1CCC(Cc2ccccc2)CC1
- EC50 (cells [1]): > 350 µM (not active)
- EC50 (cells [2]): > 350 µM (not active)
- IC50 [8]: 132 µM (active)

Compound: CCOC(=O)CN1C(=N)N(c2nc(NC(C)C)nc(NC(C)C)n2)CC1=O
- EC50 (cells [1]): > 350 µM (not active)
- EC50 (cells [2]): > 350 µM (not active)

Compound: COc1ccc(CCN(Cc2cccs2)S(=O)(=O)c2ccc(-n3cnnn3)cc2)cc1OC
- AC50 [9]: 12.7 µM (active)
- AC50 [10]: 20.3 µM (active)
- AC50 [11]: 9.27 µM (active)

Compound: COc1ccc(S(=O)(=O)N(C)C[C@@H]2Oc3ncc(-c4cc5ccccc5o4)cc3C(=O)N([C@H](C)CO)C[C@@H]2C)cc1
- AC50 [9]: 10.5 µM (active)
- AC50 [11]: 16.4 µM (active)

Compound: CC1CCN(C(=O)c2ncn3c2C(=O)NC[C@@H]3C)CC1
- AC50 [9]: 3.59 µM (active)
- AC50 [10]: 15.7 µM (active)
- AC50 [7]: 18 µM (active)

Compound: CN1C(=O)c2cc(NS(=O)(=O)c3ccccc3F)ccc2OC[C@@H]2O[C@H](CC(=O)NC3Cc4ccccc4C3)CC[C@@H]21
- AC50 [9]: 2.89 µM (active)
- AC50 [10]: 2.99 µM (active)
- AC50 [11]: 8.06 µM (active)

Compound: COc1ccc(NC(=O)Nc2ccc3c(c2)C(=O)N([C@H](C)CO)C[C@H](C)[C@H](CN(C)S(=O)(=O)c2ccc(F)cc2)O3)cc1
- AC50 [9]: 13 µM (active)
- AC50 [10]: 16.6 µM (active)
- AC50 [11]: 27.5 µM (active)

Compound: CN(C[C@H](Cc1ccccc1)N(C[C@H](c1ccccc1)N(CCc1ccccc1)N=O)N=O)N=O
- AC50 [9]: 7.62 µM (active)
- AC50 [10]: 9.49 µM (active)
- AC50 [7]: 35.2 µM (active)

Compound: Cc1ccc(-c2nc(CS(=O)(=O)CC(=O)NC3CCC(C)CC3)c(C)o2)cc1 (stereo not given)
- EC50 (cells [1]): > 350 µM (not active)
- EC50 (cells [2]): > 350 µM (not active)
